IC50 data for one compound are collected here from BindingDB's records for doi:10.1021/acs.jmedchem.6b00538 (University of Lille, 2017).

The target in this test is Fatty-acid amide hydrolase 1 (Rattus norvegicus) (UniProt P97612). As to the kind of experiment: Inhibition of Wistar rat brain homogenate FAAH using [3H]AEA as substrate after 10 mins by liquid scintillation counting method.
Chain of Fatty-acid amide hydrolase 1 (Rattus norvegicus) (P97612 whole entry, looked up): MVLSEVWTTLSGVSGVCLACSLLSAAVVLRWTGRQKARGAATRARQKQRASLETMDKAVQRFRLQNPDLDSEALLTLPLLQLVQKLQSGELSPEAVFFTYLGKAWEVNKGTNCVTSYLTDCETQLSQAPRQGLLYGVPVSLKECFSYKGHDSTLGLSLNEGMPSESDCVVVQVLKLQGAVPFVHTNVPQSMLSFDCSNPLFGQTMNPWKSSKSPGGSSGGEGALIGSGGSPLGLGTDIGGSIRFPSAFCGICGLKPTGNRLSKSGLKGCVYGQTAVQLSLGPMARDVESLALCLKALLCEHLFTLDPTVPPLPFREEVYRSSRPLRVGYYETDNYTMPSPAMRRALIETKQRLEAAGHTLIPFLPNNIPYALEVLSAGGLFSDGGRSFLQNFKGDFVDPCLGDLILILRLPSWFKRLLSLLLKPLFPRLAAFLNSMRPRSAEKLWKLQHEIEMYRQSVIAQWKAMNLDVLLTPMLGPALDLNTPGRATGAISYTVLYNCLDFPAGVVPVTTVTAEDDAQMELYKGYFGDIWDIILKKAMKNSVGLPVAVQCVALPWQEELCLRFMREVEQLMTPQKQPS

Regarding `COc1nn(-c2ccc(Oc3ccccc3)cc2C(F)(F)F)c(=O)o1`, the IC50 (as a rule, the midpoint of a concentration-inhibition curve) amounted to 0.23 µM.
